Experimental data published in patent US9452152B2, “Fe(III) complex compounds for the treatment and prophylaxis of iron deficiency symptoms and iron deficiency anemias” (Vifor (International) AG, priority 2012, dated 2016).

Key:
[1] = test system: Male NMRI (SPF) mice fed a low-iron diet; assay: Fe utilization in iron-deficient mouse model (hemoglobin and body weight increase); format: in vivo; settings: for Utilization n 15 d (abs. %): mice, stomach tube, 2 mg iron/kg body weight/day, days 1-5 and 8-12, utilization on day 15; for iron utilization, Example according to the invention: comparison table, compounds of the invention
Method: The excellent Fe utilizations that can be accomplished through the Fe complexes according to the invention were measured by means of the following mouse model.
(In each case 6 animals per substance were used. There was a negative group (water) with 6 animals and as a positive group FeSO4 was used with 6 animals, too).
Male NMRI (SPF) mice (approximately 3 weeks old) were fed a low-iron diet (approx. 5 ppm iron) for approximately 3 weeks. The iron complexes were then administered to them by means of a stomach tube (2 mg iron/kg body weight/day) for 2 times 5 days, with an interruption of 2 days (days 1-5 and 8-12). Utilization on day 15 was calculated from the hemoglobin increase and the body weight increase in accordance with the formula
0.07=Factor for 70 ml blood per kg body weight (BW)
Hb1=Hemoglobin level (g/l) on day 1
Hb2(3)=Hemoglobin level (g/I) on day 8 (or 15)
BW4=body weight (g) on day 1
BW9(14)=body weight (g) on day 8 (or 15)
Hb1 Control=average hemoglobin level (g/l) on day 1 in the control group,
Hb2(3) Control=average hemoglobin level (g/l) on day 8 (or 15) in the control group,
BW4 Control=average body weight (g) on day 1 in the control group,
BW9(14) Control=average body weight (g) on day 8 (or 15) in the control group,
Fe Dos.=entire administered iron (mg Fe) over 5 or 10 days,
Δ Utilization=Fe tot. utilized (examined group)−Fe ut. Control group, utilized from food, (mg Fe)

[2] = Comparison of the pH-dependent solubility (photometric iron determination); format: physicochemical; settings: water, pH 6.5 (phthalate buffer 0.1 m), 4 h, 25° C.; for Solubility based on amount of iron: ">" = weighed amount completely dissolved
Text: The pH was adjusted to 6.5 with a phthalate buffer (0.1 m). […] UV device type SPECORD 205 manufacturer Jena Analytik). This value represents the solubility of the iron complex. If the weighed amount of the iron complex was completely dissolved, the measured value was indicated by the prefix “>”.

| optical evaluation: dissolved? [2] | Solubility based on amount of iron [2] [mg/mL] | Substance | Utilization n 15 d (abs. %) [1] [abs. %] | iron utilization, Example according to the invention ([1]; mouse model) [%] | iron utilization (statement in words) ([1]; mouse model) |
| --- | --- | --- | --- | --- | --- |
| – | – | Tris-(2,4-dioxo-4-(pyrrolidine-1-yl)butaneamide)-iron(III)-complex [Example 4] | 92 | – | – |
| – | – | Tris-(4-(morpholine-4-yl)-2,4-dioxobutaneamide)-iron(III)-complex [Example 2] | 75 | 75 | – |
| yes | >0.55 | Tris-(N,N,N′,N′-tetramethyl-2-oxobutanediamide)-iron(III)-complex [Example 5] | 82 | 82 | – |
| – | – | Tris-(N,N-Dimethyl-3,4-dioxo-4-(pyrrolidine-1-yl)butaneamide)-iron(III) complex [Example 11] | 50 | – | – |
| – | – | Tris-(N^1,N^4,N^4-trimethyl-2-oxobutanediamide)-iron(III)-complex [Example 7] | 68 | – | – |
| no | 0.58 | Tris-(N^1-[2-(dimethylamino)-2-oxoethyl]-N^1,N^4,N^4-trimethyl-2-oxobutanediamide)-iron(III)-complex [Example 18] | 78 | – | – |
| no | 0.49 | Tris-(N^4-(2-hydroxyethyl)-N^1,N^1,N^4-trimethyl-2-oxobutanediamide)-iron(III)-complex [Example 21] | 86 | 86 | – |
| yes | >0.51 | Tris-(N^4-[2-(dimethylamino)-2-oxoethyl]-N^1,N^1,N^4-trimethyl-2-oxobutanediamide)-iron(III)-complex [Example 12] | 80 | – | – |
| no | 0.47 | Tris-(ethyl-N-[4-(dimethylamino)-2,4-dioxobutanoyl]-N-methylglycinate)-iron(III)-complex [Example 17] | 91 | – | – |

| Substance | optical evaluation: dissolved? [2] | Solubility based on amount of iron [2] [mg/mL] | Utilization n 15 d (abs. %) [1] [abs. %] | iron utilization, Example according to the invention ([1]; mouse model) [%] | iron utilization (statement in words) ([1]; mouse model) |
| --- | --- | --- | --- | --- | --- |
| Tris-(N^1-(2-methoxyethyl)-N^4,N^4-dimethyl-2-oxobutanamid)-iron(III)-complex [Example 16] | no | 0.45 | 65 | – | – |
| Tris-(N^4,N^4-dimethyl-2-oxobutanediamide)-iron(III)-complex [Example 1] | yes | 0.529 | 98 | 98 | significantly improved iron utilization compared to Example 32 of WO11117225A1 |
| Tris-(N^4-(2-methoxyethyl)-N^1,N^1,N^4-trimethyl-2-oxobutanediamide)-iron(III)-complex [Example 13] | yes | >0.52 | 70 | – | – |
